# Test results published in US20130090385A1, “NOVEL SPECIFIC CASPASE-10 INHIBITORS” (MERCK PATENT GESELLSCHAFT MIT BESCHRANKTER HAFTUNG, priority 2005, published 2013).
# Read-outs that look alike come from different tables or passages of the source. Where a SMILES comes first, the peptide text is derived from it. The star is where a group is joined. Cbz = O=C(OCc1ccccc1)*; CH2F = FC*
# Tests used:
# [1] = target: T1, Recombinant human caspase-6 (Homo sapiens, UniProt P55212); assay: delayed-time fluorescence caspase inhibition test, caspase-6
# T1 sequence (P55212 24-293): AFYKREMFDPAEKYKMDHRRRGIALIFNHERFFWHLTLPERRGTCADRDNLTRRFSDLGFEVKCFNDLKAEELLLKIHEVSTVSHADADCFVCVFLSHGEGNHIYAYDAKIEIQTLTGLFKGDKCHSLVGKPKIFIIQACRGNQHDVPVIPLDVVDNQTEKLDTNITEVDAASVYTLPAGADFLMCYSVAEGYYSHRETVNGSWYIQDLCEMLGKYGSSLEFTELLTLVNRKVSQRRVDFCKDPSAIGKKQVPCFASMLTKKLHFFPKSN
# Description: (§1) The substrate used is a tetrapeptide specific to this caspase, having at one of its ends a fluorescent europium marker (W1284) and at the other end a europium chelate fluorescence quencher (QSy-7): Eu-W1284-CIETDK-QSy-7.
# (§2) The caspase cleaves the substrate, releasing the quencher. Thus, by excitation at 340 nm, the signal emitted by the fluorescence of the europium is read by WALLAC Victor^2 reader at 615 nm.
# (§3) They are ready for use or may be divided into aliquots and stored at −80° C.. […] 20 μl of this solution are distributed per well of the assay plate. […] The assay is performed with 1 U of enzyme per well, by distributing 20 μl of the diluted solution per well. • The standard inhibitors: The standard inhibitors are dissolved in DMSO to a concentration of 10 mM. They are tested at IC20 and at IC50 on the caspases they inhibit (see following table).
# (§4) They are then distributed in the wells using this solution to reach the final concentration of IC20 or IC50, i.e. 3 μl in 33 μl of final reaction volume (dilution 1/11). Thus, the final concentration of DMSO in the well is 0.3% (v/v) final. […] An intermediate dilution (1/6.6) is prepared in DMSO by diluting 10 μl of the concentrated solution in 66 μl of DMSO (final volume). […] The inhibitors are then distributed in the wells to reach the final screening concentration (10 μM), i.e. 3 μl in 33 μl of final reaction volume (dilution 1/11) and a final concentration of DMSO of 0.3% (v/v) in the well. • Protocol:
# (§5) The incubation takes place for 3 hours 30 minutes at room temperature before reading the fluorescence in delayed time on the WALLAC Victor^2 reader with the filters corresponding to the fluorescence of europium (excitation filter: 340 nm, emission filter: 615 nm).
# (§6) The inhibitors are diluted using solutions with concentrations of less than 20 mM in DMSO, and then prediluted in the caspase buffer. […] The specificity factor for caspase-10 is calculated as the following ratio:
# [2] = target: T2, Recombinant human caspase-10 (Homo sapiens, UniProt Q92851); assay: delayed-time fluorescence caspase inhibition test, caspase-10
# T2 sequence (Q92851 220-521): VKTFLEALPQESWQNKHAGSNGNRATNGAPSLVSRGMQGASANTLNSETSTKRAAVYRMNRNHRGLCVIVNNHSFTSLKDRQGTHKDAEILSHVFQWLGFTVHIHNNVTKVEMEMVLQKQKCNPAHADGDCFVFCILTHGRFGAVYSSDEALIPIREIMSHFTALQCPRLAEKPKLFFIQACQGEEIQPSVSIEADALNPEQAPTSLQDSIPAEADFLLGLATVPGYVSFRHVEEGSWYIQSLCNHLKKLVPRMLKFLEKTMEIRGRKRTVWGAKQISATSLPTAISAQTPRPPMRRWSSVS
# Description: as §1, §2, §3, §4, §5, §6
# [3] = target: T3, Recombinant human caspase-2 (Homo sapiens, UniProt P42575); assay: delayed-time fluorescence caspase inhibition test, caspase-2
# T3 sequence (P42575 1-452): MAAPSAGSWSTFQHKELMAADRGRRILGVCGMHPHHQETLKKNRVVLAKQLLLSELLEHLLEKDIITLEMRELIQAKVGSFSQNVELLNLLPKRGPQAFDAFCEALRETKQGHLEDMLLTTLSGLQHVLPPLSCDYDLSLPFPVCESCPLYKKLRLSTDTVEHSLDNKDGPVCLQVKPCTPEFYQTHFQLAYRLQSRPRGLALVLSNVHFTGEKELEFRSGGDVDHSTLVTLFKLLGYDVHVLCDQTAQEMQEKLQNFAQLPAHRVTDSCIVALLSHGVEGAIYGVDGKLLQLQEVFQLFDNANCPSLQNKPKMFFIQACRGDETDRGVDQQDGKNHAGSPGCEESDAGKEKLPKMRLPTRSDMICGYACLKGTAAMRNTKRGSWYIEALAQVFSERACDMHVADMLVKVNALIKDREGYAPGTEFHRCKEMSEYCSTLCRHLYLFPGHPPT
# Description: as §1, §2, §3, §4, §5, §6
# [4] = target: Recombinant human caspase-8 (Homo sapiens, UniProt Q14790); assay: delayed-time fluorescence caspase inhibition test, caspase-8
# Sequence of Recombinant human caspase-8 (Q14790 217-479): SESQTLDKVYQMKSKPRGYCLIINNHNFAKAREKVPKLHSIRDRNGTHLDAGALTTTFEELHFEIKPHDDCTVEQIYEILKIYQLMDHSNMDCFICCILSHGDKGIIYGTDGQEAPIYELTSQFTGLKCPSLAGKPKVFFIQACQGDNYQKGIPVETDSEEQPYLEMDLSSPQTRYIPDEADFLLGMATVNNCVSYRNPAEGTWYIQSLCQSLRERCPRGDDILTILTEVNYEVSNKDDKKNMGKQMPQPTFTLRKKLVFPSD
# Description: as §1, §2, §3, §4, §5, §6
# [5] = target: T4, Recombinant human caspase-3 (Homo sapiens, UniProt P42574); assay: delayed-time fluorescence caspase inhibition test, caspase-3
# T4 sequence (P42574 29-277): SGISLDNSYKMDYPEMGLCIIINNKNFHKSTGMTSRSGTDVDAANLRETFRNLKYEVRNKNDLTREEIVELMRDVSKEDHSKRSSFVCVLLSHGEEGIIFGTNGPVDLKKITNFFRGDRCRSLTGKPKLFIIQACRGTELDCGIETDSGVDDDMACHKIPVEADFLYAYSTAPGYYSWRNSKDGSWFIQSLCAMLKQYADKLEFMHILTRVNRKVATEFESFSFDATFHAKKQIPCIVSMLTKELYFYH
# Description: as §1, §2
# 20 μl of this solution are distributed per well of the assay plate. […] The assay is performed with 1 U of enzyme per well, by distributing 20 μl of the diluted solution per well. • The standard inhibitors: The standard inhibitors are dissolved in DMSO to a concentration of 10 mM. They are tested at IC20 and at IC50 on the caspases they inhibit (see following table). The concentrations mentioned in the table are the final concentrations in the assay wells.
# as §4
# The volumes and the protocol were optimised for automated use.
# as §5
# The inhibitors are diluted using solutions with concentrations of less than 20 mM in DMSO, and then prediluted in the caspase buffer.
# [6] = target: T5, Recombinant human caspase-9 (Homo sapiens, UniProt P55211); assay: delayed-time fluorescence caspase inhibition test, caspase-9
# T5 sequence (P55211 1-416): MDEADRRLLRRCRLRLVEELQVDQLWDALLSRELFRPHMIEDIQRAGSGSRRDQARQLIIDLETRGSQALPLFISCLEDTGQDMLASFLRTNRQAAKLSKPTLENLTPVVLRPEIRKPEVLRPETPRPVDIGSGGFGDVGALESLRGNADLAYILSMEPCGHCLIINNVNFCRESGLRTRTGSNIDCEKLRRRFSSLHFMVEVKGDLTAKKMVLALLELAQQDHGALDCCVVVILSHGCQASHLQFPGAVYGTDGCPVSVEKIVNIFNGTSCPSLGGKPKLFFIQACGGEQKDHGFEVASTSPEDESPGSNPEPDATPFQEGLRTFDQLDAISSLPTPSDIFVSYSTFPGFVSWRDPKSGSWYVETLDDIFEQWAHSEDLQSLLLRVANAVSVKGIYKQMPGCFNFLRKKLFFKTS
# Description: as §1, §2, §3, §4, §5, §6
# [7] = read-out: IC20 of standard inhibitor
Structure (SMILES),IC50 [1],IC50 [2],IC50 [3],IC50 [4],IC50 [5],IC50 [6],also measured
"O=S(=O)(NCC1(Cc2ccc(CCOCC3CC3)cc2)CCC1)c1ccc(Cl)cc1Cl [Example 1, 2,4-Dichloro-N-[(1-{4-[2-(cyclopropylmethoxy)ethyl]benzyl}cyclobutyl)methyl]benzenesulfonamide]",> 200 µM,0.22 µM,> 200 µM,> 200 µM,> 200 µM,> 200 µM,–
"COc1ccc(S(=O)(=O)NCC2(Cc3ccc(CCOCC4CC4)cc3)CCC2)cc1 [Example 5, N-[(1-{4-[2-(cyclopropylmethoxy)ethyl]benzyl}cyclobutyl)methyl]-4-methoxy-benzenesulfonamide]",> 200 µM,3.59 µM,> 200 µM,> 200 µM,> 200 µM,> 200 µM,–
"O=S(=O)(NCC1(Cc2ccc(CCSC3CCCC3)cc2)CCC1)c1ccc(Cl)cc1Cl [Example 12, 2,4-dichloro-N-[(1-{4-[2-(cyclopentylthio)ethyl]benzyl}cyclobutyl)methyl]benzenesulfonamide]",> 200 µM,0.216 µM,> 200 µM,> 200 µM,> 200 µM,> 200 µM,–
"CSCCc1ccc(CC2(CNS(=O)(=O)c3ccc(Cl)cc3Cl)CCC2)cc1 [Example 17, 2,4-dichloro-N-[(1-{4-[2-(methylthio)ethyl]benzyl}cyclobutyl)methyl]benzenesulfonamide]",> 200 µM,0.214 µM,> 200 µM,> 200 µM,> 200 µM,> 200 µM,–
"O=S(=O)(NCC1(Cc2ccc(CCS(=O)(=O)C3CCCC3)cc2)CCC1)c1ccc(Cl)cc1Cl [Example 22, 2,4-dichloro-N-[(1-{4-[2-(cyclopentylsulfonyl)ethyl]benzyl}cyclobutyl)methyl]benzenesulfonamide]",> 200 µM,0.705 µM,> 200 µM,> 200 µM,> 200 µM,> 200 µM,–
"CS(=O)(=O)CCc1ccc(CC2(CNS(=O)(=O)c3ccc(Cl)cc3Cl)CCC2)cc1 [Example 27, 2,4-dichloro-N-[(1-{4-[2-(methylsulfonyl)ethyl]benzyl}cyclobutyl)methyl]benzenesulfonamide]",> 200 µM,0.235 µM,> 200 µM,> 200 µM,> 200 µM,> 200 µM,–
"CS(=O)(=O)CCc1ccc(CC2(CNS(=O)(=O)c3cccc4ccccc34)CCC2)cc1 [Example 30, N-[(1-{4-[2-(methylsulfonyl)ethyl]benzyl}cyclobutyl)methyl]naphthalene-1-sulfonamide]",> 200 µM,4.46 µM,> 200 µM,> 200 µM,> 200 µM,> 200 µM,–
O=S(=O)(NCC1(Cc2ccc(CCO)cc2)CCCC1)c1ccc(Cl)cc1 [Example 33],–,–,–,–,–,–,"IC50 ([1]; read-out: Inhibition IC50 Caspase-6, tested 100 nM to 200 μM, 1% DMSO, 3 h 30 min at room temperature): > 200 µM; IC50 ([2]; read-out: Inhibition IC50 Caspase-10, tested 100 nM to 200 μM, 1% DMSO, 3 h 30 min at room temperature): 1.7 µM; IC50 ([3]; read-out: Inhibition IC50 Caspase-2, tested 100 nM to 200 μM, 1% DMSO, 3 h 30 min at room temperature): > 200 µM; IC50 ([4]; read-out: Inhibition IC50 Caspase-8, tested 100 nM to 200 μM, 1% DMSO, 3 h 30 min at room temperature): > 200 µM; IC50 ([5]; read-out: Inhibition IC50 Caspase-3, tested 100 nM to 200 μM, 1% DMSO, 3 h 30 min at room temperature): > 200 µM; IC50 ([6]; read-out: Inhibition IC50 Caspase-9, tested 100 nM to 200 μM, 1% DMSO, 3 h 30 min at room temperature): > 200 µM"
CS(=O)(=O)c1ccc(S(=O)(=O)NCC2(Cc3ccc(CCO)cc3)CCCC2)cc1 [Example 36],> 200 µM,9.66 µM,> 200 µM,> 200 µM,> 200 µM,> 200 µM,–
O=S(=O)(NCC1(Cc2ccc(CCO)cc2)CCCC1)c1ccc(C(F)(F)F)cc1 [Example 49],> 200 µM,3.14 µM,> 200 µM,> 200 µM,> 200 µM,> 200 µM,–
"COC(=O)C[C@H](NC(=O)[C@H](C)NC(=O)[C@@H](NC(=O)[C@H](CC(=O)OC)NC(=O)OCc1ccccc1)C(C)C)C(=O)CF [z- DVAD - fmk, reference compound] (Cbz-D(OMe)VAD(OMe)-CH2F)",–,–,–,–,–,–,"IC20 [3, 7]: 3 µM"
"CC[C@H](C)[C@H](NC(=O)OCc1ccccc1)C(=O)N[C@@H](CCC(=O)OC)C(=O)N[C@H](C(=O)N[C@@H](CC(=O)OC)C(=O)CF)[C@@H](C)O [z- IETD - fmk, z-IE(OMe)TD(OMe)-fmk, reference compound] (Cbz-IE(OMe)TD(OMe)-CH2F)",–,–,–,–,–,–,"IC20 [2, 7]: 0.08 µM; IC20 [4, 7]: 1.5 µM"
"CC[C@H](C)[C@H](NC(=O)[C@H](CCC(=O)OC)NC(=O)[C@@H](NC(=O)OCc1ccccc1)C(C)C)C(=O)N[C@@H](CC(=O)OC)C(=O)CF [z- VEID - fmk, z-VE(OMe)ID(OMe)-fmk, reference compound] (Cbz-VE(OMe)ID(OMe)-CH2F)",–,–,–,–,–,–,"IC20 [1, 7]: 3 µM"
"COC(=O)CC[C@H](NC(=O)[C@H](CC(C)C)NC(=O)OCc1ccccc1)C(=O)N[C@@H](Cc1c[nH]cn1)C(=O)N[C@@H](CC(=O)OC)C(=O)CF [z-LEHD - fmk, z-LE(OMe)HD(OMe)-fmk, reference compound] (Cbz-LE(OMe)HD(OMe)-CH2F)",–,–,–,–,–,–,"IC20 [6, 7]: 0.2 µM"

# The next lines start with results.
IC50 [1],IC50 [2],IC50 [3],IC50 [4],IC50 [5],IC50 [6],Structure (SMILES),also measured
> 200 µM,3.5 µM,> 200 µM,> 200 µM,> 200 µM,> 200 µM,O=S(=O)(NCC1(Cc2ccc(CCO)cc2)CCCC1)c1cccc(Cl)c1 [Example 34],–
> 200 µM,2.88 µM,> 200 µM,> 200 µM,> 200 µM,> 200 µM,CC(=O)c1ccc(S(=O)(=O)NCC2(Cc3ccc(CCO)cc3)CCCC2)cc1 [Example 35],–
> 200 µM,5.12 µM,> 200 µM,> 200 µM,> 200 µM,> 200 µM,CSc1ccc(S(=O)(=O)NCC2(Cc3ccc(CCO)cc3)CCCC2)cc1 [Example 43],–
> 200 µM,0.297 µM,> 200 µM,> 200 µM,> 200 µM,> 200 µM,O=S(=O)(NCC1(Cc2ccc(CCO)cc2)CCCC1)c1ccc(Cl)c(Cl)c1 [Example 45],–
> 200 µM,0.179 µM,> 200 µM,> 200 µM,> 200 µM,> 200 µM,O=S(=O)(NCC1(Cc2ccc(CCO)cc2)CCCC1)c1ccc(Cl)cc1Cl [Example 46],–
> 200 µM,5.51 µM,> 200 µM,> 200 µM,> 200 µM,> 200 µM,COc1ccc(S(=O)(=O)NCC2(Cc3ccc(CCO)cc3)CCCC2)cc1 [Example 47],–
> 200 µM,3.16 µM,> 200 µM,> 200 µM,> 200 µM,> 200 µM,O=S(=O)(NCC1(Cc2ccc(CCO)cc2)CCCC1)c1cccc(C(F)(F)F)c1 [Example 50],–
